Laboratory results taken from patent US4048299A, “Anticaries confectionaries and oral health products” (William Wrigley, Jr. Co., priority 1970, dated 1977).
Where two headings read alike, the source gives them in different places.

Legend:
L. casei = assay: Growth inhibition of oral microorganisms in vitro, pour plates; assay type: cell-based, Lactobacillus casei; conditions: Table IX; for Bacterial Population, Experimental: control 8 × 10^8 to 1 × 10^9; for Inhibition (growth): pour plates incubated 48 - 72 hours
Protocol: (§1) (a)Determined on freshly grown pure cultures. Pour plates were incubated

oral microorganisms [1] = assay: Growth inhibition in vitro (summary); assay type: cell-based; conditions: in words, summary of tables
Protocol: (§2) Other in vitro evaluations utilized a broth tube analysis of representative anticaries aldehydes incorporated in the vehicles of this invention against cultures of acid producing microorganisms normally present in the mouth. Standard laboratory procedures were utilized throughout to evaluate the acid production inhibition and growth inhibition over the incubation time of up to 24 hours.

Streptococcus spp. FA-1 = assay: Growth inhibition of oral microorganisms in vitro, pour plates; assay type: cell-based; conditions: Table IX; for Bacterial Population, Experimental: control 2 × 10^8 to 5 × 10^8; for Inhibition (growth): pour plates incubated 48 - 72 hours
Protocol: as §1

[2] = system: Lactobacillus casei and Streptococcus sp. FA-1; assay: Acid-production inhibition by broth-tube assay, 0.1 percent of compound; assay type: cell-based; conditions: for inhibition at 0.1 %: read-out: Activity, Acid-Production Inhibition%; for Activity, Acid-Production Inhibition, %: Table XII, 0.1% of compound
Protocol: ^(a) Activity was measured by broth-tube assay to determine percent
(§3) acid-production inhibition obtained by Lactobacillus casei and
Streptococcus sp. FA-1 in the presence of 0.1 percent of compound.
^(a) Activity was measured by broth-tube assay to determine percent o
as §3
Streptococcus sp. FA-1 in the presence of 0.1% of compound. Symbols

oral microorganisms [3] = assay: Acid production inhibition in vitro (summary); assay type: cell-based; conditions: in words, summary of tables
Protocol: as §2

[4] = In vivo caries evaluation, Osborne-Mendel strain 2 rat; design: species or system rat (Osborne-Mendel strain 2); Caries Score, Mean Incidence / Caries Score, Mean Extent: scale not given here; conditions: for Caries Score, Mean Incidence / Caries Score, Mean Extent: 1 percent in diet; for Caries Extent Reduction, statistical evaluation / Caries Incidence Reduction, statistical evaluation: Student's test, 95 percent confidence limit
Source text: (§4) Standard laboratory techniques were used to complie the data presented. In each case the aldehyde was incorporated into each specimen's food in a one percent, by weight, quantity, over a period of several weeks. In all cases, caries reduction was noted.
(§5) The aldehydes tested in vivo were pyruvaldehyde, d,1-glyceraldehyde, crystalline dimer, glycolaldehyde, octanaldehyde, nonanaldehyde, decanaldehyde, undecylenic aldehyde, and lauric aldehyde. The polyaldehydes tested were dialdehyde starch, dialdehyde starch 50 percent oxidized, dialdehyde starch 90 percent oxidized, and dialdehyde galactomannan gum.
^(a) Agents were incorporated in the diet at a 1 percent level.

[5] = In vivo caries evaluation, laboratory animals (summary); conditions: one percent level in diet
Source text: as §4, §5

[6] = system: Mixed human oral microorganisms; assay: Acid production inhibition by aldehydes in product vehicles, broth-tube technique; assay type: cell-based; conditions: in tooth powder (aqueous extract), 1 to 5 percent aldehyde
Protocol: as §2
(§6) (a)Measured by broth-tube technique.
(§7) In formulating Tables XIII - XIX representative aldehydes having anticaries activity were selected from those tested as summarized in Tables I - XII and incorporated in seven representative types of products. The products included dextrose and sucrose syrups, obtained commercially in food grades, and compressed candy, hard candy, mouthwash, toothpaste and toothpowder. The five latter products also employed food grade and reagent grade ingredients. These products were formulated by well-known and representative recipes for each type of product. The products were formed in batches of approximately 1 pound or 1 liter and contained all their normal constitutents. Aliquots of each products were blended with one of each of the representative aldehydes selected except in the case of hard candy.
(§8) Aliquots of the aldehyde incorporating sugar syrups, confectioneries, and mouthwash formulations were added directly to assay flasks and mixed or dissolved as required. Aqueous extracts of the aldehyde incorporated in toothpaste and toothpowder were prepared and aliquots of the filtrate were added to the assay flasks.
(§9) The assay flasks contained the necessary components for a normal growth response from the organisms employed, Lactobacillus casei ATCC 4646, originally a human oral isolate, Streptococcus spp. K1-R, human caries isolate, and a mixed oral microbial population obtained fresh from saliva on the morning prior to the initiation of each assay incubation period. The assay flask medium was dissolved in distilled water in which was added an equal volume of filter sterilized human saliva to yield a 50 percent saliva-medium combination. The medium contained all normal ingredients such as yeast extract, proteose peptone number 3 (a proprietary formula of Difco Laboratories, Detroit, Michigan) monopotassium phosphate, Tween 80 (polyoxethylene sorbitan monoleate) and water, except a carbon source. This was supplied by the aliquot of the sucrose syrup, dextrose syrup, sucrose in the compressed candy tablet and sucrose in the hard candy product. In addition, an aliquot of sucrose solution concentrate was added to the assay flask as a carbon source for evaluation of mouthwash, toothpaste, and toothpowder vehicles.
(§10) The lower aldehydes such as glycolaldehyde, crystalline dimer; pyruvaldehyde, aqueous syrup; d,1-glyceraldehyde solution and crystalline dimer; and glutaraldehyde, employed as a 50 percent aqueous solution, are water soluble and were employed directly either as powders or aqueous solutions. The C8 to C12, longer chain aliphatic aldehydes, of which decyl and dodecyl (lauric) were selected as representative, are oil soluble and are prepared and added to the products as emulsions with four parts of Tween 20, polyoxethylene sorbitan monolaurate. The aldehyde concentrations in the products were randomly chosen between 1 to 5 percent by weight. Limits for the concentrations were selected to coincide with the data presented in Tables I - XII in order to verify that the anticaries activity of the aldehydes in the product vehicles tested was equivalent to the activity previously established for the aldehydes alone.

Streptococcus spp. KI-R [7] = assay: as above; assay type: cell-based; conditions: in tooth powder (aqueous extract), 1 to 5 percent aldehyde
Protocol: as §2, §6, §7, §8, §9, §10

[8] = system: Lactobacillus casei ATCC 4646; assay: as above; assay type: cell-based; conditions: in tooth powder (aqueous extract), 1 to 5 percent aldehyde
Protocol: as §2, §6, §7, §8, §9, §10

[9] = system: Mixed human oral microorganisms; assay: Growth inhibition by aldehydes in product vehicles, pour-plate technique; assay type: cell-based; conditions: in tooth powder (aqueous extract), 1 to 5 percent aldehyde
Protocol: as §2
(§11) (b)Measured by pour-plate technique.
as §7, §8, §9, §10

Streptococcus spp. KI-R [10] = assay: as above; assay type: cell-based; conditions: in tooth powder (aqueous extract), 1 to 5 percent aldehyde
Protocol: as §2, §11, §7, §8, §9, §10

[11] = system: Lactobacillus casei ATCC 4646; assay: as above; assay type: cell-based; conditions: in tooth powder (aqueous extract), 1 to 5 percent aldehyde
Protocol: as §2, §11, §7, §8, §9, §10

[12] = Table X, 0.1 percent of compound

## CCCC=CC=O [2-Hexene-1-al]
L. casei
  Bacterial Population, Experimental: 8 × 10^8
  Inhibition (growth): Insignificant
Oral microorganisms [1]
  Growth Inhibition: little or no growth inhibition
Streptococcus spp. FA-1
  Bacterial Population, Experimental: 9 × 10^7
  Inhibition (growth): Insignificant
[2]
  inhibition at 0.1 %: 90 to 98%
Oral microorganisms [3]
  Acid Production Inhibition: excellent acid production inhibition

## O=CCCCC(O)C=O (stereo not shown) [2-Hydroxyadipaldehyde]
[2]
  Activity, Acid-Production Inhibition, %: + (25 to 74)

## CC(C)=CCCC(C)=CC=O [Citral]
[2]; [12]
  inhibition at 0.1 %: 99 to 100%

## OCC1OC(O)C(CO)OC1O (stereo not shown) [Glyceraldehyde, crystalline dimer]
[4]; Table I, 91 days, L-2000 control 23.5
  Caries Score, Mean Incidence: 15.0
[4]; Table I, 91 days, L-2000 control 51.0
  Caries Score, Mean Extent: 29.4
[4]; Table I, 91 days
  Caries Extent Reduction, statistical evaluation: Significant
  Caries Incidence Reduction, statistical evaluation: Significant

## O=CC=O [Glyoxal]
[2]
  Activity, Acid-Production Inhibition, %: ++++ (99 to 100)

## CCCCCCCCCCCC=O [Lauric aldehyde]
L. casei
  Bacterial Population, Experimental: < 1 × 10^2
  Inhibition (growth): > 99.99%
[5]
  Anticaries effect in laboratory animals: significant anticaries activity
[4]; Table II, 90 days, L2000 control 17.4
  Caries Score, Mean Incidence: 10.0
[4]; Table II, 90 days, L2000 control 31.3
  Caries Score, Mean Extent: 15.6
[4]; Table II, 90 days
  Caries Extent Reduction, statistical evaluation: Significant
  Caries Incidence Reduction, statistical evaluation: Significant
Streptococcus spp. FA-1
  Bacterial Population, Experimental: 0
  Inhibition (growth): 100%
[2]; [12]
  inhibition at 0.1 %: 99 to 100%
[6]; 2 h incubation
  Acid Production Inhibition: 33 Per cent
[6]; 5 h incubation
  Acid Production Inhibition: 96 Per cent
[6]; 24 h incubation
  Acid Production Inhibition: 0 Per cent
Streptococcus spp. KI-R [7]; 2 h incubation
  Acid Production Inhibition: 0 Per cent
Streptococcus spp. KI-R [7]; 5 h incubation
  Acid Production Inhibition: 0 Per cent
Streptococcus spp. KI-R [7]; 24 h incubation
  Acid Production Inhibition: 0 Per cent
[8]; 2 h incubation
  Acid Production Inhibition: 0 Per cent
[8]; 5 h incubation
  Acid Production Inhibition: 0 Per cent
[8]; 24 h incubation
  Acid Production Inhibition: 93 Per cent
[9]; 2 h incubation
  Growth Inhibition: 99.8 Per cent
[9]; 5 h incubation
  Growth Inhibition: 99.6 Per cent
[9]; 24 h incubation
  Growth Inhibition: N.S.
Streptococcus spp. KI-R [10]; 2 h incubation
  Growth Inhibition: 99.2 Per cent
Streptococcus spp. KI-R [10]; 5 h incubation
  Growth Inhibition: > 99.99 Per cent
Streptococcus spp. KI-R [10]; 24 h incubation
  Growth Inhibition: 100 Per cent
[11]; 2 h incubation
  Growth Inhibition: 99.5 Per cent
[11]; 5 h incubation
  Growth Inhibition: > 99.99 Per cent
[11]; 24 h incubation
  Growth Inhibition: 99.99 Per cent

## O=CC(=O)C=O [Mesoxalic dialdehyde]
[2]; confirmation of purity and structure lacking, actual activity could be much higher
  Activity, Acid-Production Inhibition, %: + (25 to 74)
